Test [1] deals with young adult C57BL/6J-OlaHsd mice. The test can be described thus: Object location task (OLT), 24h intertrial interval. Format: in vivo, mouse. Here is the method: Mice received a subcutaneous injection with vehicle (0.1% DMSO in 2% Tween80 and 0.5% methylcellulose), roflumilast 0.03 mg/kg as a positive control, or RICE01 (0.00003 mg/kg-0.3 mg/kg) 3h after the first learning trial of the 24h interval OLT.

The test system of test [2] is Primary mouse oligodendrocyte precursor cells (OPCs). Description: OPC differentiation (in vitro), O4 and MBP staining. Conditions: for OPC differentiation towards oligodendrocytes: nanomolar ranges. Format: cell-based. Here is the method:
Primary mouse oligodendrocyte precursor cells (OPCs) were isolated from p0 C57bl6 pups using the shake off method at day 0 (FIG. 1). […] Primary OPCs (150,000 cells/condition) were cultured and stimulated with vehicle (0.1% DMSO) or different concentration of RICE (3 nM, 10 nM, 30 nM, 100 nM, 300 nM, 1000 nM) in 0.1% DMSO. Treatment was repeated on day 2 and day 4, applying a 40% medium change. Cells were fixated at day 6 and stained for O4, a late OPC marker, and MBP, an oligodendrocyte marker. […] The increased expression of O4 declined from 100 nM RICE onwards.

Test [3] relates to Male wild type C57bl6 mice fed cuprizone. The test can be described thus: Visual evoked potentials after cuprizone diet (in vivo). Also on record: species or system mouse. The following applies: 0.1 mg/kg or 0.3 mg/kg subcutaneous twice a day, remyelination phase, compared to vehicle. Here is the method:
Male wild type C57bl6 mice were fed regular chow (n=6) or 0.3% (w/w)cuprizone (n=21) for 6 weeks to […]. Afterwards, cuprizone was removed and recovery was allowed. Two days before ceasing the cuprizone diet, until the end of the experiment, animals received twice a day subcutaneous injections consisting of 0.1% DMSO in 0.5% methylcellulose solution with either vehicle (no cuprizone and vehicle group; n=6 and n=8 respectively), 0.1 mg/kg RICE (n=7) or 0.3 mg/kg RICE (n=6) (FIG. 3). […] After either three or four days after ceasing the cuprizone diet, visual evoked potential were measured to evaluate optic tract and nerve signaling (groups equally divided over testing days). Epidermal VEP was recorded in response to flash stimulation (3 trains of 20 stimuli, 10 us duration, 1 Hz frequency) from both eyes. […] A one-way ANOVA with Kruskall Wallis multiple comparison test was conducted to evaluate statistical significances (*p≤0.05; **p<0.01, ****p<0.001).

Test [4] deals with Mouse cerebellar brain slices. Description: Myelination in lysolecithin-demyelinated brain slices (ex vivo). The format is cell-based. The following applies: 1 μM, 10 days. As for the experimental part:
Mouse cerebellar brain slices (350 μm) were made from the cerebellum of p10 C57bl6 pups. After 4 days in culture, slices were demyelinated using 0.5 mg/ml lysolecithin (18 h) and subsequently treated for 10 days with 1 μM RICE (in 0.1% DMSO) (FIG. 2).

Entries after “also recorded” stand apart in the source; their conditions may differ. Some results are limits rather than exact numbers.

For the molecule `Oc1cc(-c2ccn(CC(O)CN3CCOCC3)n2)ccc1OC(F)F` (stereo not shown) [RICE01], the “D2 value versus zero (one-sample t-test)” value in test [1] (0.00003 mg/kg subcutaneous), in test [1] (0.0001 mg/kg subcutaneous), in test [1] (0.0003 mg/kg subcutaneous), in test [1] (0.001 mg/kg subcutaneous), in test [1] (0.01 mg/kg subcutaneous) and in test [1] (0.03 mg/kg subcutaneous) was “significantly higher than zero” throughout. Moreover, the “D2 value versus zero (one-sample t-test)” value in test [1] (0.1 mg/kg subcutaneous) is on record as “significantly higher than zero”. Further, the “d2 index compared with vehicle treatment (Dunnett's)” value in test [1] (0.0001 mg/kg subcutaneous) and in test [1] (0.1 mg/kg subcutaneous) was “significantly higher d2 index” in each case. The “discrimination index (D2) in the object location task” value in test [1] (subcutaneous, 0.00003 mg/kg-0.3 mg/kg, 3h after first learning trial) is given as “increases”. In test [2] (3-1000 nM, day 6), the “MBP expression (oligodendrocyte marker)” value was “dose dependently increased”. The “O4 expression (late OPC marker)” value in test [2] (3-1000 nM, treatment day 0, 2, 4, fixated day 6) is recorded as “increased with the lower concentrations”. Moreover, the “concentration from which the increased expression of O4 declined” value in test [2] (day 6) was at least 100 nM. For the same molecule, the “concentration of maximal MBP expression” value in test [2] (day 6) came to 30 nM. For the same molecule, the “concentration of maximal O4 expression increase” value in test [2] (day 6) came out at 10 nM. Also, the “OPC differentiation towards oligodendrocytes” value is “induces OPC differentiation and myelin production” in test [2]; “boosts OPC differentiation towards oligodendrocytes; also recorded: boosted OPC differentiation; also recorded: stimulated the differentiation of oligodendrocytes” in test [2] (listed as RICE). For the same molecule, the “visual evoked potential latency” value in test [3] is reported as “decreased latency times”. The “(re)myelination (myelination index / MBP expression)” value in test [4] was “improved (re)myelination”.

For the origin of these results see patent US20240279183A1, “COMPOUNDS AND PHARMACEUTICAL COMPOSITIONS FOR USE IN NEURODEGENERATIVE DISORDERS” (Universiteit Hasselt, priority 2021, published 2024).
